The text below walks through data of US20050020630A1, “Cycloalkyl and heterocycloalkyl substituted benzothiophenes as therapeutic agents” (priority 2003, published 2005).

T1 sequence (P48736 whole entry, species assumed): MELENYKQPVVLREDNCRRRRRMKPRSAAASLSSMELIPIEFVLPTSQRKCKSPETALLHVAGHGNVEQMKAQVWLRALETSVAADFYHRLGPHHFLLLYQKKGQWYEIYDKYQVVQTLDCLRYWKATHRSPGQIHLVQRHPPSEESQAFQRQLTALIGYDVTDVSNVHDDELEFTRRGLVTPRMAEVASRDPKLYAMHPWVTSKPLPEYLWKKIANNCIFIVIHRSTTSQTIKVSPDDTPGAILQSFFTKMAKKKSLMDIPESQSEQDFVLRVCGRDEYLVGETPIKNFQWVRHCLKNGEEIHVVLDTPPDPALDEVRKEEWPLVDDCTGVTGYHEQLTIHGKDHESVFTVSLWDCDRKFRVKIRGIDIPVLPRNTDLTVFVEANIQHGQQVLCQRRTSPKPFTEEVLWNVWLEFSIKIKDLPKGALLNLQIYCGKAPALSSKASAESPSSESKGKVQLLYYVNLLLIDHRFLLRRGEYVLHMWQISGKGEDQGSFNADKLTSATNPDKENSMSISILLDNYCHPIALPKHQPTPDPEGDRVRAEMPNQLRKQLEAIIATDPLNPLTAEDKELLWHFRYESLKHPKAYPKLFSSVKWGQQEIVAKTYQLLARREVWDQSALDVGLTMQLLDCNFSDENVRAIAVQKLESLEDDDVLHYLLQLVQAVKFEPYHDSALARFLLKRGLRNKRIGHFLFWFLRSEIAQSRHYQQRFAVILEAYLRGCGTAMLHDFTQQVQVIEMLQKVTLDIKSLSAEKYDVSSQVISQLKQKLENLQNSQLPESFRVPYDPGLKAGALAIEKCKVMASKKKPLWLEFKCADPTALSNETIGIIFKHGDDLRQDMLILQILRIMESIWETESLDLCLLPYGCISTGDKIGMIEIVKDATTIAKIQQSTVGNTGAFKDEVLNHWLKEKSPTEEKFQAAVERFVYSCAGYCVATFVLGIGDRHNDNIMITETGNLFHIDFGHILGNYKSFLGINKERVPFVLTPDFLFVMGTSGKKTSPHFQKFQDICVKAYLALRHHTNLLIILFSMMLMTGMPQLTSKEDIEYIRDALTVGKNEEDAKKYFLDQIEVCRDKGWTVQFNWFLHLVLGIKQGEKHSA
T1 sequence (Q8WYR1 whole entry partner, species assumed): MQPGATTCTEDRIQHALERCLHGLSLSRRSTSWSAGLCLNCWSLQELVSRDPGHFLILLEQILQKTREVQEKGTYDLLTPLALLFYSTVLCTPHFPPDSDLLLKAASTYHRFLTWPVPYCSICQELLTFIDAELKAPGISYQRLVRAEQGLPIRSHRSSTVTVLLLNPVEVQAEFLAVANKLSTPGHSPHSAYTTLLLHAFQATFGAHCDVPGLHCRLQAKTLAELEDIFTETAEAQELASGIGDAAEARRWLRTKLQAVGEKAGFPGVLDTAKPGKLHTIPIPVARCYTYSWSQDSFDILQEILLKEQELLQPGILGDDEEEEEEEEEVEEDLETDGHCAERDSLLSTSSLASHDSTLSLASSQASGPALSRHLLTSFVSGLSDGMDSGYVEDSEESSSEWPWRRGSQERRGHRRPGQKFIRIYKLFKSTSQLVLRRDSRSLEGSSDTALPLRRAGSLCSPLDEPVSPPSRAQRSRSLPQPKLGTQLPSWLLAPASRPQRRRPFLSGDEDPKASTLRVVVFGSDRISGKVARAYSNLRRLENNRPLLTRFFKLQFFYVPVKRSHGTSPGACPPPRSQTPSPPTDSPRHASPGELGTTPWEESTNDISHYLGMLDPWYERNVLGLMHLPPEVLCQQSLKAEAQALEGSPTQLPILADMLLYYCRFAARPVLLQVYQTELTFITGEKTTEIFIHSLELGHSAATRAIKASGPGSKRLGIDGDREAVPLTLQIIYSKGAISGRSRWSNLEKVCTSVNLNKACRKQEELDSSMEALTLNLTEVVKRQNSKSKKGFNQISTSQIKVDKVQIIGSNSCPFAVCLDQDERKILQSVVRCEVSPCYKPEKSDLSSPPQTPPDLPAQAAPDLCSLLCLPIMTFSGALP

This experiment has as its target T1, PI3Kγ (Homo sapiens, UniProt P48736).
T1 construct: HA; made in house; host or cells: Spodoptera frugiperda (Sf9) cells, baculovirus co-infection
The experiment is described as follows: PI3Kγ In Vitro Kinase Assay. The format is biochemical. As to conditions: purified recombinant p101/p110 γ protein with G protein β1/γ2 subunits; 20 μM ATP, 25 μM PIP2; 20 minutes at room temperature; radioactive PIP3 readout. Here is the method: Spodtera frugiperda cells, grown in ESF921 media, were coinfected with baculovirus expressing a glu-tagged p101 and baculovirus expressing an HA-tagged p110γ, at a 3:1 ratio of p101 baculovirus to p110γ baculovirus. Sf9 cells were grown to 1×10^7 total cells/mL in 10 L bioreactors and harvested 48-72 hours post infection. Samples of infected cells were then tested for expression of p101/p110 γ PI3 kinase by immunoprecipitation and Western Blot analysis methods (see below). To purify PI3Kγ, 4 volumes of room temperature hypotonic lysis buffer (1 mM MgCl2, 1 mM DTT, 5 mM EGTA, 1 mM Pefabloc, 0.5 μM aprotinin, 5 μM leupeptin, 2 μM pepstatin, 5 μM E64, pH 8) per gram of cell paste, was poured onto frozen cell pellets with stirring, then lysed in a nitrogen “bomb” at 400 psi (599HC […], Parr Instrument Co, Moline, Ill.). NaCl was added to 150 mM, and sodium cholate was added to 1% and mixed for another 45 minutes. The lysates were clarified by centrifugation for 25 minutes at 14,000 rpm. The lysates were then loaded over anti-glu-linked Protein-G Sepaharose beads (Covance Research Products, Richmond, Calif.) using 20 mL resin/50 g cell paste. The column was washed with 15 volumes of wash buffer (1 mM DTT, 0.2 mM EGTA, 1 mM Pefabloc, 0.5 μM aprotinin, 5 μM leupeptin, 2 μM pepstatin, 5 μM E64, 150 mM NaCl, 1% sodium cholate, pH 8). PI3Kγ was eluted with 6 column volumes of wash buffer that contain 100 μg/mL of a peptide that competes for binding of the glu tag. The column fractions with the eluted protein (determined by taking OD280 readings) were collected and dialyzed in 0.2 mM EGTA, 1 mM DTT, 1 mM Pefabloc, 5 μM leupeptin, 0.5% sodium cholate, 150 mM NaCl, and 50% glycerol, pH 8. The fractions were stored at -80° C. until further use. Spodtera frugiperda cells were coinfected with baculovirus expressing a glu-tagged G protein β1 and baculovirus expressing a G protein β2, at a 1:1 ratio of glu-tagged G protein β1 baculovirus to G protein β2 baculovirus. Sf9 cells are grown in 10 L bioreactors and harvested 48-72 hours post infection. Samples of infected cells were tested for G protein β1/β2 expression by Western Blot analysis, as described below. Cell lysates were homogenized and loaded onto a column of glu-tagged beads as in Biological Example 1 and competed off the column with a glu peptide and processed as described in Biological Example 1. The inhibitory properties of the compounds in Table 1 were assayed in an in vitro PI3K assay. In a 96-well polypropylene plate, each well was spotted with 2 μL of 50 times the desired final concentration of compound in DMSO. Purified recombinant p101/p110 γ protein (0.03 μg; 2.7 nM) and G protein β1/γ2 subunits (0.09 μg; 57.7 nM) for each reaction was combined in the assay buffer (30 mM HEPES, 100 mM NaCl, 1 mM EGTA, and 1 mM DTT). ATP and [γ-^32P-ATP] (0.09 μCi) were added to this mixture so that the final ATP concentration in the reaction was 20 μM. Lipid micelles were formed by sonicating phosphatidylinositol-4,5-diphosphate (PIP2), phosphatidylethanolamine (PE), and Na-cholate in the assay buffer for 10 minutes, adding MgCl2 and incubating on ice for 20 minutes, for final concentrations of 25 μM PIP2, 300 μM PE, 0.02% Na-cholate, and 10 mM MgCl2 in the reaction. The reactions were started by adding equal volumes lipid and enzyme mixture in a total volume of 50 μL, allowed to run for 20 minutes at room temperature, and stopped with 100 μL 75 mM H3PO4. The lipid product was transferred to a glass fiber filter plate and washed with 75 mM H3PO4 several times. The presence of radioactive lipid product (PIP3) was measured by adding Wallac Optiphase mix to each well and counting in a Wallac 1450 Trilux plate reader (PerkinElmer Life Sciences Inc., Boston, Mass. 02118). The IC50 for each compound tested is reported in μM in Table 1: […]
In the case of `COc1cc2c(OC3CCCCC3)c(C(=O)Nc3nn[nH]n3)sc2cc1C` [Example 6, 3-Cyclohexyloxy-5-methoxy-6-methyl-benzo[b]thiophene-2-carboxylic acid (2H-tetrazol-5-yl)-amide], the IC50 was determined as 7 nM.

Regarding `COc1cc2c(OC3CCCN(C(C)=O)C3)c(C(=O)Nc3nn[nH]n3)sc2cc1C` (stereo not shown) [Example 13, 3-(1-Acetyl-piperidin-3-yloxy)-5-methyoxy-6-methyl-benzo[b]thiophene-2-carboxylic acid (2H-tetrazol-5-yl)-amide], the IC50 was found to be 72 nM.

As for `COc1cc2sc(C(=O)Nc3nnn[nH]3)c(OCC3CCCC3)c2cc1OC` [Example 43, 3-Cyclopentylmethoxy-5,6-dimethoxy-benzo[b]thiophene-2-carboxylic acid (1H-tetrazol-5-yl)-amide], the IC50 was determined as 101 nM.

For the compound `COc1cc2sc(C(=O)Nc3nnn[nH]3)c(OC3CC(C)CC(C)(C)C3)c2cc1OC` (stereo not shown) [Example 48, 5,6-Dimethoxy-3-(3,3,5-trimethyl-cyclohexyloxy)-benzo[b]thiophene-2-carboxylic acid (1H-tetrazol-5-yl)-amide], the half-inhibitory concentration (IC50) amounted to 170 nM.

As for `COc1cc2c(OC3CCOCC3)c(C(=O)Nc3nn[nH]n3)sc2cc1C` [Example 1, 5-Methoxy-6-methyl-3-(tetrahydro-pyran-4-yloxy)-benzo[b]thiophene-2-carboxylic acid (2H-tetrazol-5-yl)-amide], the IC50 turned out to be 24 nM.

Consider `CCC(Oc1c(C(=O)Nc2nnn[nH]2)sc2cc(OC)c(OC)cc12)C1CCCCC1` (stereo not shown) [Example 44, 3-(1-Cyclohexyl-propoxy)-5,6-dimethoxy-benzo[b]thiophene-2-carboxylic acid (1H-tetrazol-5-yl)-amide], for which the IC50 was 160 nM.

As to `COc1cc2sc(C(=O)Nc3nnn[nH]3)c(OC3CCCC3)c2cc1OC` [Example 50, 3-Cyclopentyloxy-5,6-dimethoxy-benzo[b]thiophene-2-carboxylic acid (1H-tetrazol-5-yl)-amide], the IC50 was determined as 120 nM.

Consider `COc1cc2sc(C(=O)Nc3nnn[nH]3)c(OCC3CCCCC3)c2cc1OC` [Example 21, 3-Cyclohexylmethoxy-5,6-dimethoxy-benzo[b]thiophene-2-carboxylic acid (1H-tetrazol-5-yl)-amide], for which the IC50 worked out at 195 nM.

Regarding `COc1cc2c(OC3CCCCCC3)c(C(=O)Nc3nn[nH]n3)sc2cc1C` [Example 8, 3-Cycloheptyloxy-5-methoxy-6-methyl-benzo[b]thiophene-2-carboxylic acid (2H-tetrazol-5-yl)-amide], the IC50 was 5 nM.

Turning to `COc1cc2sc(C(=O)Nc3nnn[nH]3)c(OC3CCN(Cc4ccccc4)CC3)c2cc1OC` [Example 49, 3-(1-Benzyl-piperidin-4-yloxy)-5,6-dimethoxy-benzo[b]thiophene-2-carboxylic acid (1H-tetrazol-5-yl)-amide], the IC50 was 2550 nM.

In the case of `CCC1(COc2c(C(=O)Nc3nnn[nH]3)sc3cc(OC)c(OC)cc23)COC1` [Example 28, 3-(3-Ethyl-oxetan-3-ylmethoxy)-5,6dimethoxy-benzo[b]thiophene-2-carboxylic acid (1H-tetrazol-5-yl)-amide], the IC50 stood at 245 nM.

Take `COc1cc2sc(C(=O)Nc3nnn[nH]3)c(OC3CC(C)CC(C)C3)c2cc1OC` (stereo not shown) [Example 46, 3-(3,5-Dimethyl-cyclohexyloxy)-5,6-dimethoxy-benzo[b]thiophene-2-carboxylic acid (1H-tetrazol-5-yl)-amide]: the IC50 was determined as 30 nM.

Consider `COc1cc2c(OC3CCCC(C)C3)c(C(=O)Nc3nn[nH]n3)sc2cc1C` (single isomer, unassigned) [Example 7, 5-Methoxy-6-methyl-3-(3-methyl-cyclohexyloxy)-benzo[b]thiophene-2-carboxylic acid (2H-tetrazol-5-yl)-amide], for which the IC50 stood at 3 nM.

Turning to `COc1cc2c(OC3CCN(C4CCCCC4)CC3)c(C(=O)Nc3nn[nH]n3)sc2cc1C` [Example 11, 3-(1-Cyclohexyl-piperdin-4-yloxy)-5-methoxy-6-methyl-benzo[b]thiophene-2-carboxylic acid (2H-tetrazol-5-yl-amide)], the IC50 was determined as 965 nM.

As for `COc1cc2sc(C(=O)Nc3nnn[nH]3)c(OC3CCC(C4CCCCC4)CC3)c2cc1OC` (stereo not shown) [Example 30, 3-(Bicyclohexyl-4-yloxy)-5,6-dimethoxy-benzo[b]thiophene-2-carboxylic acid (1H-tetrazol-5-yl)-amide], the IC50 was found to be 110 nM.

On to `COc1cc2sc(C(=O)Nc3nn[nH]n3)c(OC3CCCCC3)c2cc1C` [Example 51, 3-Cyclohexyloxy-6-methoxy-5-methyl-benzo[b]thiophene-2-carboxylic acid (2H-tetrazol-5-yl)-amide], for which the IC50 turned out to be 20 nM.

As for `COc1cc2c(OC3CC(C)(C)CC(C)(C)C3)c(C(=O)Nc3nn[nH]n3)sc2cc1C` [Example 3, 5-Methoxy-6-methyl-3-(3,3,5,5-tetramethyl-cyclohexyloxy)-benzo[b]thiophene-2-carboxylic acid (2H-tetrazol-5-yl)-amide], the IC50 was found to be 165 nM.

On to `COc1cc2c(OCCCC3CCCCC3)c(C(=O)Nc3nn[nH]n3)sc2cc1C` [Example 15, 3-(3-Cyclohexyl-propoxy)-5-Methoxy-6-methyl-benzo[b}thiophene-2-carboxylic acid (2H-tetrazol-5-yl)amide], for which the IC50 was determined as 28 nM.

For `COc1cc2sc(C(=O)Nc3nnn[nH]3)c(OC3CCC4CCCCC4C3)c2cc1OC` (stereo not shown) [Example 47, 3-(Decahydro-naphthalen-2-yloxy)-5,6-dimethoxy-benzo[b]thiophene-2-carboxylic acid (1H-tetrazol-5-yl)-amide], the IC50 was 112 nM.

In the case of `COc1cc2c(OC3CCCNC3)c(C(=O)Nc3nn[nH]n3)sc2cc1C` (stereo not shown) [Example 10], the IC50 was 1290 nM.

Turning to `COc1cc2sc(C(=O)Nc3nn[nH]n3)c(OC3CCC(C(C)(C)C)CC3)c2cc1OC` (stereo not shown) [Example 23, 3-(4-tert-Butyl-cyclohexyloxy)-5,6-dimethoxy-benzo[b]thiophene-2-carboxylic acid (2H-tetrazol-5-yl)-amide], the IC50 was determined as 56 nM.

Consider `COc1cc2c(OC3CC(C)CC(C)(C)C3)c(C(=O)Nc3nn[nH]n3)sc2cc1C` (stereo not shown) [Example 4, 5-Methoxy-6-methyl-3-(3,3,5-trimethyl-cyclohexyloxy)-benzo[b]thiophene-2-carboxylic acid (2H-tetrazol-5-yl)-amide], for which the IC50 was determined as 9 nM.

For the compound `COc1cc2sc(C(=O)Nc3nn[nH]n3)c(OC3CCCCC3)c2cc1OC` [Example 22, 3-Cyclohexyloxy-5,6-dimethoxy-benzo[b]thiophene-2-carboxylic acid (2H-tetrazol-5-yl)-amide], the IC50 was determined as 34 nM.

Consider `COc1cc2c(OC3CCN(C(=O)OC(C)(C)C)CC3)c(C(=O)Nc3nn[nH]n3)sc2cc1C` [Example 17, 4-[5-Methoxy-6-methyl-2-(2H-tetrazol-5-ylcarbamoyl)-benzo[b]thiophene-3-yloxy]-piperidine-1-carboxylic acid tert-butyl ester], for which the IC50 was 24 nM.

For the compound `COc1cc2sc(C(=O)Nc3nnn[nH]3)c(OCC3CC=CCC3)c2cc1OC` (stereo not shown) [Example 32, 3-(Cyclohex-3-enylmethoxy)-5,6-dimethoxy-benzo[b]thiophene-2-carboxylic acid (1H-tetrazol-5-yl)-amide], the IC50 amounted to 101 nM.
